Experiment [1] has as its target T1, hERG potassium channel (Homo sapiens, UniProt Q12809).
T1 construct: expressed in transfected cells; host or cells: CHO-hERG cells
The experiment is described as follows: Inhibitory activity on hERG potassium channel (Qpatch, CHO-hERG cells). The format is cell-based. As to conditions: six concentrations up to 40 μM, read-out: hERG (inhibitory effect on hERG current). The method, then: 8.1.1 CHO-hERG cells were cultured in a 175 cm^2 culture flask. When the cells were grown to a density of 60 to 80%, the culture solution was removed, and the cells were washed once with 7 mL of PBS, and then 3 mL of Detachin was added for digestion of the cells.
8.1.2 After the digestion was complete, the cells were neutralized by adding 7 mL of the culture solution and then centrifuged. The supernatant was removed, and then 5 mL of the culture solution was added for resuspension to ensure a cell density of 2-5×10^6 cells/mL.
The single-cell high-impedance sealing and whole-cell pattern formation processes were both completed automatically by the Qpatch instrument. After the whole-cell recording pattern was obtained, the cells were clamped at −80 millivolts. A pre-voltage of −50 millivolts was applied for 50 milliseconds prior to the application of a depolarizing stimulus of +40 millivolts for 5 seconds, and then the cells were repolarized to −50 millivolts and maintained for 5 seconds, and then returned back to −80 millivolts. This voltage stimulation was applied every 15 seconds, and data were recorded for 2 minutes, and thereafter the extracellular fluid was administered and data were recorded for 5 minutes, and then the administration process was started. The compound was administered from the lowest test concentration, and 2.5 minutes were given for each test concentration. After all the concentrations of the compound were administered, […] Cisapride as a positive control compound was administered. At least three cells (n≥3) were tested for each concentration.
8.4.1 20 mM compound mother solution was diluted with the extracellular fluid. 5 μL of the 20 mM compound mother solution was diluted 500 times to 40 μM by adding 2495 μL of the extracellular fluid, and then 3-fold serial dilutions were performed sequentially in the extracellular fluid containing 0.2% DMSO to obtain a final concentration to be tested.
8.4.2 The highest test concentration was 40 μM, and there were six concentrations in total, i.e., 40, 13.33, 4.44, 1.48, 0.49, and […], respectively.
The experimental data were analyzed by XLFit software.
On the technique in general: The hERG channel carries a current that helps repolarise heart muscle cells.

In experiment [2] the target is T2, SHP-2 full-length protein (Homo sapiens, UniProt Q06124).
T2 construct: purchased BPS Bioscience 79330
T2 sequence (Q06124 1-593): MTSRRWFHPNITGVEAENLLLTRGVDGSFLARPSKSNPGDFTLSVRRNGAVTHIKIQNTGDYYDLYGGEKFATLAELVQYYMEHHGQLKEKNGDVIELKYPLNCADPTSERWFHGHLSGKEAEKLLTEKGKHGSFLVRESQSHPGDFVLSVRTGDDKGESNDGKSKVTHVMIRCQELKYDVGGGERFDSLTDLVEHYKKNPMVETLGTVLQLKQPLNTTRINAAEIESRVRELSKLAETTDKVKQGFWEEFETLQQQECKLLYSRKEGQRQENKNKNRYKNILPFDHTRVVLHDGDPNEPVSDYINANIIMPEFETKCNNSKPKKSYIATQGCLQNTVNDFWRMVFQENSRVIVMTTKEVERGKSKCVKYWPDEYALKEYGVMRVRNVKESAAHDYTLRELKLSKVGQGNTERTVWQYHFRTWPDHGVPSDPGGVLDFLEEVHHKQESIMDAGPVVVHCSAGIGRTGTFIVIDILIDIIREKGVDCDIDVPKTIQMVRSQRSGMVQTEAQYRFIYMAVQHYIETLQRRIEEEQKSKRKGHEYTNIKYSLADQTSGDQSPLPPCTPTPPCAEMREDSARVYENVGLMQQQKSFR
The experiment can be described thus: Inhibition of SHP-2 kinase activity (Homogeneous Full Length SHP-2 Assay Kit). Type of experiment: biochemical. The conditions noted are these: relative IC50, full-length SHP-2 with activating peptide. The method, then:
The objective of this test is to determine the inhibitory effect of the compounds on SHP-2 full-length protein allosteric activity.
Experimental method: Homogeneous Full Length SHP-2 Assay Kit (BPS Bioscience, #79330) was used to determine the in vitro SHP-2 activity. First, 18 μL of Master Mix was added to a 96-well low adsorption microplate (NUNC, #267342), i.e., the reaction buffer with a final concentration of 1× comprised 0.5 μM SHP-2 activating Peptide and 5 mM DTT. After centrifugation, 5 μL of test compound/DMSO was added to each well (the final DMSO content was 1%, V/V, the test compound was dissolved in DMSO to 1 mM, a three-fold serial dilution was carried out to obtain ten concentrations, the final concentration of the reaction system ranged from 1 μM to 0.05 nM). SHP-2 was diluted in the 1× reaction buffer to a final concentration of 0.06 nM, and the resulting solution was added to the reaction microplate (2 μL per well). Full activity control (compound only with DMSO) and full inhibition control (no SHP-2) were set up on the reaction plate. After centrifugation, the reaction mixture was incubated at room temperature for 60 minutes.
After completion of the incubation, 25 μL of Substrate solution, which comprised Substrate with a final concentration of 10 μM and 5 mM DTT, was added to each well. After centrifugation, the reaction mixture was incubated at room temperature for 30 minutes. After completion of the reaction, readings were measured on the Synergy H1 full-function microplate reader (BioTek) (excitation wavelength: 340 nm, emission wavelength: […], gain value: 75).
The IC50 value of the test compounds was calculated by fitting the percentage inhibition rate and data of ten concentrations to a four-parameter nonlinear logic formula with GraphPad prism.

T1 sequence (Q12809 whole entry): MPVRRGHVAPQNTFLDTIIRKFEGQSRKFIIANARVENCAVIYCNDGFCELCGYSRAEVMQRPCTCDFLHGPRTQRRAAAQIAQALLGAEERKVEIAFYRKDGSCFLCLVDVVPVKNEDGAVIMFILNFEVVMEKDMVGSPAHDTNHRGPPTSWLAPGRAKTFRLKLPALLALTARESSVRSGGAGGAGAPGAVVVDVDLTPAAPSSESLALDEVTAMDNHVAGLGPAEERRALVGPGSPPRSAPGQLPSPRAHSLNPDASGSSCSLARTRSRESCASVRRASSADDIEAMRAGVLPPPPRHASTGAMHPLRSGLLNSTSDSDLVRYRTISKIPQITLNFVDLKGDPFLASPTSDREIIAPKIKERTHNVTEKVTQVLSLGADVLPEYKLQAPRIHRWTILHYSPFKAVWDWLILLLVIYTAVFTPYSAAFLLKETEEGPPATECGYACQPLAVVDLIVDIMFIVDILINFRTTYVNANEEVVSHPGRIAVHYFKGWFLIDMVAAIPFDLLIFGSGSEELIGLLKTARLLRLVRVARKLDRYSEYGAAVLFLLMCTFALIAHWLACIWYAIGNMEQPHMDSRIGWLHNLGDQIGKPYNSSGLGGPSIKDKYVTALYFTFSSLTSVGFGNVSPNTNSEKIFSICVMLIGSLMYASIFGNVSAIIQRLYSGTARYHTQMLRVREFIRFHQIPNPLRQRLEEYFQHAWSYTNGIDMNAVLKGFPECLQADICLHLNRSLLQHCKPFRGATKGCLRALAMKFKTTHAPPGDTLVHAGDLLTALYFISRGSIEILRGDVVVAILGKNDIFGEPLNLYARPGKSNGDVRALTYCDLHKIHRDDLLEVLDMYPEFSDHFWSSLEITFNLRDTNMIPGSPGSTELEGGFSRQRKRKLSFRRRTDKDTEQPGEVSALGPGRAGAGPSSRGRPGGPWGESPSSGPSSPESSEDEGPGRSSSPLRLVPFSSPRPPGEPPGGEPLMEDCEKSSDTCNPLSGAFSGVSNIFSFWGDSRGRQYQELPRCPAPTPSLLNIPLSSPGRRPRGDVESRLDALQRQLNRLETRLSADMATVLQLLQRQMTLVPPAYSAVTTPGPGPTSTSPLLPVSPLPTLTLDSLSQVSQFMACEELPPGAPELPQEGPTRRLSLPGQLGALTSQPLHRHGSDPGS

Turning to `Cc1nc(N2CCC3(CC2)Cc2ncsc2[C@H]3N)c(CO)nc1Sc1ccnc(N)c1Cl` [Example 171, (S)-(6-((2-amino-3-chloropyridin-4-yl)thio)-3-(6-amino-4,6-dihydrospiro[cyclopenta[d]thiazole-5,4′-piperidin]-1′-yl)-5-methylpyrazin-2-yl)methanol], the IC50 in experiment [1] amounted to 18800 nM; in experiment [2], 1.73 nM.

Take `Nc1nccc(Sc2cnc(N3CCC4(CC=C(C5CC5)[C@H]4N)CC3)cn2)c1Cl` [Example 144, (S)-8-(5-((2-amino-3-chloropyridin-4-yl)thio)pyrazin-2-yl)-2-cyclopropyl-8-azaspiro[4.5]dec-2-en-1-amine]: the IC50 came out at 2340 nM in experiment [1] and 1.48 nM in experiment [2].

In the case of `Nc1nc(N2CCC3(CC2)Cc2ncsc2[C@H]3N)c(F)nc1Sc1ccnc(N)c1Cl` [Example 181, (S)-1′-(6-amino-5-((2-amino-3-chloropyridin-4-yl)thio)-3-fluoropyrazin-2-yl)-4,6-dihydrospiro[cyclopenta[d]thiazole-5,4′-piperidin]-6-amine], the IC50 in experiment [1] came out at 21900 nM; in experiment [2], 3.07 nM.

Regarding `Nc1nc(N2CCC3(CC2)Cc2ccccc2[C@H]3N)c(F)nc1Sc1ccnc(N)c1Cl` [Example 179, (S)-1′-(6-amino-5-((2-amino-3-chloropyridin-4-yl)thio)-3-fluoropyrazin-2-yl)-1,3-dihydrospiro[indene-2,4′-piperidin]-1-amine], the IC50 was 4510 nM in experiment [1] and 1.75 nM in experiment [2].

Values taken from patent US20210355105A1, “REGULATOR OF NITROGEN-CONTAINING HETEROAROMATIC DERIVATIVES, PREPARATION METHOD THEREFOR AND USE THEREOF” (Jiangsu Hansoh Pharmaceutical Group Co., Ltd., priority 2018, published 2021).
